Patent publication US9610359B2, “Methods and compositions related to annexin 1-binding compounds” (Burnham Institute for Medical Research, priority 2009, dated 2017)
No end group written: not given here.

How the values were obtained:
[1] = test system: Anxa1-expressing mouse endothelial F-2 cells; experiment: binding to the surface of F-2 cells cultured in vitro; format: cell-based
Method: (§1) A. Binding of IF7C(RR)-conjugated FITC-polylysine on the surface of mouse endothelial F-2 cells cultured in vitro. B. Transport of […] FITC-poly-L-lysine through apical surface to basal space of F-2 cells monolayer. F-2 cells cultured on a filter of trans well insert was added with IF7C(RR)-conjugated FITC-poly-L-lysine to allow the reagent being bound to apical cell surface of F-2 cells. After washing the monolayer with medium, insert was placed in wells containing medium at 37° C. or at 4° C. Fluorescence moved to the lower chamber of insert was measured. C. Targeting and penetration of intravenously injected IF7C(RR)-conjugated FITC-poly-L-lysine in the B16 tumor in vivo in the mouse. Tissue section was immunostained for endothelial cell marker CD31.
(§2) Thus IFLLWQR-C-RR (SEQ ID NO: 17) or IF7C(RR) was synthesized. […] The cytoplasmic and nuclear FITC signals are consistent with the localization of Anxa1 in the cytoplasm and nucleus (Gerke, 2005 #5299). […] (FIG. 12B). […] To determine if the binding and transport of IF7C(RR) occur in vivo in the tumor vasculature, IF7C(RR)-conjugated FITC-poly-L-lysine was injected intravenously into a B16 tumor-bearing mouse. […] Small molecules such as SN-38 conjugated with IF7C(RR) can penetrate to the tumor deeper and faster than the large molecule such as poly-L-lysine.

B16 tumor vasculature = experiment: targeting and penetration in B16 tumor vasculature after intravenous injection; format: in vivo; conditions: B16 tumor-bearing mouse
Method: as §1, §2

F-2 cells monolayer = experiment: transport through F-2 cell monolayer in trans well chamber; format: cell-based, mouse
Method: as §1, §2

Anxa1-His6 protein = molecular target: T1, Anxa1-His6 protein (Homo sapiens, UniProt P04083); experiment: inhibition of binding of FITC-labeled polyacrylamide-LeA oligosaccharide to Anxa1-His6
T1 construct: Full-length cDNA encoding Anxa1 was obtained from Invitrogen (Carlsbad, Calif.) and subcloned into pET29a vector; His6 (C); made in house; host or cells: bacteria (pET29a vector, Novagen)
T1 sequence (P04083 1-346): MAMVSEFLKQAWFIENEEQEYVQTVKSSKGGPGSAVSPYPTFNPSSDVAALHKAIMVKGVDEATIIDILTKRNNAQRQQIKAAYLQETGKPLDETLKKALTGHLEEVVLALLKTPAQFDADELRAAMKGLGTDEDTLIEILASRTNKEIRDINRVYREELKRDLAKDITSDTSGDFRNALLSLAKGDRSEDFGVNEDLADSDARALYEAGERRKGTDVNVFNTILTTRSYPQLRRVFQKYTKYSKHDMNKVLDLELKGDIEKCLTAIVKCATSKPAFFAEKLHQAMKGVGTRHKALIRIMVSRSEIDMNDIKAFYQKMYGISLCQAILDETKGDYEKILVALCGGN
Excerpt: (§3) FIGS. 1A-1H show the essential role of annexin 1 (Anxa1) in tumor growth and identification of a peptide sequence with tumor vasculature targeting activity in vivo. A and B. Growth of B16 tumors subcutaneously injected into Anxa1(+/−) and Anxa1(−/−) mutant mice. C. Histology of B16 tumors produced in Anxa1(+/−) and Anxa1(−/−) mice. Each scale bar represents 2.00 mm. D. Immunohistochemistry of B16 tumors for CD31 showing endothelial cells and vasculature. Each scale bar represents 200 μm. E. In vivo phage targeting in B16 tumor-bearing mice. Numbers of transformed colonies recovered from the tumor or lung were determined. […] F. In vivo tumor and organ targeting activity of IFLLWQR (SEQ ID NO:2) displaying phage. Phage was injected into B16 tumor bearing mice pre-injected with anti-Anxa1 antibody or with control rabbit IgG. G. In vitro plate assay for binding of IF7-A488 (upper line) and control RQ7-A488C (lower line) to recombinant […] protein produced by bacteria. H. Effect of IF7 (upper line) and control RQ7 (lower line) on binding of FITC-labeled polyacrylamide-LeA oligosaccharide to Anxa1-His6 protein.
Full-length cDNA encoding Anxa1 was obtained from Invitrogen (Carlsbad, Calif.) and subcloned into pET29a vector (Novagen) to produce an […] fusion protein. […] After washing the plate, fluorescence was measured by a Molecular Devices Analyst HT plate reader. […]

[2] = test system: Mouse melanoma B16F1 tumors; format: in vivo; conditions: B16 melanoma, 0.13 μmoles iv
Method: (a) Mouse melanoma B16F1 tumors were grown subcutaneously in C57BL6 mice. On day 10, each mouse was injected intravenously with either 100 μl of 5% glucose or that containing 0.13 μmoles of each IF7, GA, or IF7-GA. Injections were administered every other day, for a total of three injections, until day 14. […] B, Histochemistry of tumors from the mice intravenously injected with the compounds described in A. Apoptotic tumor cells along blood vessels in transplanted tumors are detected by TUNEL assay. B16 melanoma (a), LLC lung carcinoma (b), PC3 prostate tumor (c) and MDA-MB-231 breast tumor (d) from mice treated with each compound.
Injections were administered every other day, for a total of 7 injections, until day 26, as shown by arrows.

Anxa1-His protein [3] = molecular target: T2, Anxa1-His protein (Homo sapiens, UniProt P04083); experiment: isothermal titration calorimetry (ITC) with Anxa1-His protein; format: binding; conditions: qualitative
T2 construct: Full-length cDNA encoding Anxa1 was obtained from Invitrogen (Carlsbad, Calif.) and subcloned into pET29a vector; His6 (C); made in house; host or cells: bacteria (pET29a vector, Novagen)
T2 sequence (P04083 1-346): T1 sequence (P04083 1-346)
Method: ITC was performed on a VP-ITC calorimeter from Microcal (Northampton, Mass.). In this analysis IF7K3C peptide or […] (SEQ ID NO:12), in which IF7 was modified by inserted with three lysine residues between IF7 and C to increase solubility in water. Eight μl aliquots of solution containing 1.0 or 1.5 mM were injected into the cell containing 100 or 150 μM Anxa1-His protein. In each experiment 37 injections were made. The experiments were performed at 23° C. in buffer containing 20 mM Tris pH 7.9, 250 mM NaCl, 1 mM CaCl2 and 10% dimethylsulfoxide. Experimental data were analyzed using Microcal Origin software provided by the ITC manufacturer (Microcal, Northampton, Mass.).

Anxa1-His protein [4] = molecular target: T2, Anxa1-His protein; experiment: surface plasmon resonance on Anxa1 coated chip; format: binding; conditions: qualitative
Method: IASys (Affinity Sensors, Cambridge, UK) was used. Anxa1-His protein was immobilized on the sensor chip by cross-linking to the aminosilane surface using bis[sulfosuccinimidyl] substrate (Pierce). Binding of IF7C dissolved in TBSC was recorded for 2 min, and dissociation of IF7C was initiated by adding TBSC to the sensor chip and the arc second was recorded for 5 min.

[5] = test system: Human prostate cancer PC3 tumors; experiment: orthotopic PC3 prostate cancer model in SCID mice; format: in vivo; conditions: 0.13 μmoles iv
Method: (§4) FIGS. 6A and 6B show the effect of IF7-GA on melanoma, lung carcinoma, prostate cancer, and breast cancer mouse models. A, Effect of IF7-GA on tumor size. […] Mice were euthanised on day 15 to measure tumor weight. […] Mice were euthanised on day 13 and tumors weighed. (c) Human prostate cancer PC3 tumors were grown orthotopically in the prostate of SCID mice. On day 7, each mouse was injected intravenously with the compounds as in A-a, and injections administered every 4 days, for a total of four injections, until day 22. Mice were euthanised on day 28 and tumors weighed. (d) Human breast cancer MDA-MB-231 tumors were grown orthotopically in fat pads of SCID mice. On day 7, each mouse was injected intravenously with the compounds as in A-a, and injections performed every 4 days, for a total of four injections, until day 22. […] B, Histochemistry of tumors from the mice intravenously injected with the compounds described in A. Apoptotic tumor cells along blood vessels in transplanted tumors are detected by TUNEL assay. […]
(§5) Mouse melanoma B16F1 cells (2×10^5 cells/100 μl serum-free DMEM) were injected subcutaneously into the dorsal flank of C57BL/6 female mice (8-10 weeks old). […] On day 15, mice were sacrificed and tumor weights determined. […] On day 13, mice were sacrificed and tumor weights determined. […] On day 28, mice were sacrificed and prostate tumor weights determined. […]

[6] = test system: Human breast cancer MDA-MB-231 tumors; experiment: orthotopic MDA-MB-231 breast cancer model in SCID mice; format: in vivo; conditions: MDA-MB-231 breast tumor, 0.13 μmoles iv
Method: as §4, §5

[7] = test system: Mouse Lewis lung carcinoma (LLC) tumors; experiment: subcutaneous Lewis lung carcinoma tumor model; format: in vivo; conditions: 0.13 μmoles iv
Method: as §4, §5

B16 tumor = experiment: in vivo phage targeting in B16 tumor-bearing mice; parameters: species or system mouse
Excerpt: as §3
Mouse melanoma B16F1 cells (2×10^5 cells/100 μl PBS) were injected subcutaneously into the dorsal flank of C57BL/6 female mice (8-10 weeks old). […] Colonies appearing on an agar plate after culturing at 37° C. for 20 hours were counted.

Row | Substance | binding to the surface of F-2 cells [1] | localization of fluorescence in tumor tissue sections (B16 tumor vasculature) | transport of fluorescence to the lower chamber at 4° C. (F-2 cells monolayer; 4° C.) | transport of fluorescence to the lower chamber at 37° C. (F-2 cells monolayer; 37° C.) | inhibition of fucosylated carbohydrate (LeA) binding to Anxa1 (Anxa1-His6 protein) | apoptosis of perivascular tumor cells (TUNEL, histochemistry) [2] | binding to Anxa1 by isothermal titration assay (Anxa1-His protein [3]) | binding to Anxa1 by surface plasmon resonance (Anxa1-His protein [4]) | apoptosis of perivascular tumor cells (TUNEL) [5] | apoptosis of perivascular tumor cells (TUNEL) [6] | apoptosis of perivascular tumor cells (TUNEL) [7] | targeting to the lung in tumor-bearing mice (B16 tumor; mouse, in vivo) | organ targeting of intravenously injected phage clone (B16 tumor; tumor versus lung, B16 tumor-bearing mice)
1 | IF7C(RR)-conjugated FITC-poly-L-lysine: IF7C(RR) conjugated to FITC-poly-L-lysine (IFLLWQRCRR; also: conjugated to FITC-poly-L-lysine, site not given here) | bound to the surface of Anxa1-expressing mouse endothelial F-2 cells | green fluorescence signals around the abluminal area of the vasculatures | not at 4 °C | fluorescence migrated to the lower chamber | – | – | – | – | – | – | – | – | –
2 | IFLLWQR (annexin-1 binding compound) [IF7] | – | – | – | – | inhibited by IF7 | rarely show apoptosis | confirmed | confirmed | rarely show apoptosis | rarely show apoptosis | rarely show apoptosis | could not be detected | targets tumor but not lung tissue
